What was measured:
[1] = target: T1, His tagged PTPN2 (TC45) protein (Homo sapiens, UniProt P17706); assay: Mobility Shift Assay used to determine potency of PTPN2 inhibitors; assay type: biochemical; details: Table 2; read-out: PTPN2 MSA IC50
T1 construct: made in house
T1 sequence (P17706 with tags, fused parts or gaps isoform P17706-2): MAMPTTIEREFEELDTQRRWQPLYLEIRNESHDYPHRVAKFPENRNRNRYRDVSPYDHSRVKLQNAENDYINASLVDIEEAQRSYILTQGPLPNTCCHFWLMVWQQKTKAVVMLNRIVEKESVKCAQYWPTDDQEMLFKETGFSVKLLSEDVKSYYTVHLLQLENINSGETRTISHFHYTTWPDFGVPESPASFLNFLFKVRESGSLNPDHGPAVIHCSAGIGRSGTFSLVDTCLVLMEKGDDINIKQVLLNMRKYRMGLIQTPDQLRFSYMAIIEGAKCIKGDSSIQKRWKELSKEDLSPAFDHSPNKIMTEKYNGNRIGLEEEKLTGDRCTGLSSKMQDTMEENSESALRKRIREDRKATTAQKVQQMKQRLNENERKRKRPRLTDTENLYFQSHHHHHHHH
Procedure: Example 292: Mobility Shift Assay used to determine potency of PTPN2 inhibitors
Compound activity was determined using in house His tagged PTPN2 (TC45) protein (SEQ ID NO: 1) in an in vitro enzymatic reaction. The enzymatic assay used to determine activity was a mobility shift assay using a LabChip EZ Reader by Caliper Life Sciences. The enzymatic reaction was carried out in assay buffer (50 mM HEPES pH 7.5, 1 mM EGTA, 10 mM EDTA, 0.01% Tween® 20, and 2 mM DTT). The compounds were dispensed on a white 384 well ProxiPlate™ (PerkinElmer Catalog#6008289) plate using the Labcyte Echo at varying concentrations (12 point, 1:3 dilution). The enzyme (at 0.5 nM) was incubated with compound for 10 minutes at room temperature. Then the substrate (phosphorylated insulin receptor probe sequence: ((OG488)—{NH—CH2—CH2—O—CH2—CH2—O—CH2—CO)—T—R—D—I—(PY)—E—T—D—Y—Y—R—K—K—NH2) (SEQ ID NO: 2) was added at 2 μM to the plates and incubated for another 10 minutes at room temperature. Finally, a quench solution (water and 4-bromo-3-(2-oxo-2-propoxyethoxy)-5-(3-{[1-(phenylmethanesulfonyl)piperidin-4-yl]amino}phenyl)thiophene-2-carboxylic acid) was added to the plates, which were then run on the EZ Reader (excitation 488 nm, emission 530 nm) to measure % conversion (the amount of phosphorylated substrate which was de-phosphorylated by PTPN2). […] The % inhibition was then used to calculate the IC50 values.

[2] = target: T2, His tagged full-length PTP1B protein (Homo sapiens, UniProt P18031); assay: Mobility Shift Assay (MSA) used to determine potency of PTP1B inhibitors; assay type: biochemical; details: Table 2
T2 construct: made in house
T2 sequence (P18031 with tags, fused parts or gaps): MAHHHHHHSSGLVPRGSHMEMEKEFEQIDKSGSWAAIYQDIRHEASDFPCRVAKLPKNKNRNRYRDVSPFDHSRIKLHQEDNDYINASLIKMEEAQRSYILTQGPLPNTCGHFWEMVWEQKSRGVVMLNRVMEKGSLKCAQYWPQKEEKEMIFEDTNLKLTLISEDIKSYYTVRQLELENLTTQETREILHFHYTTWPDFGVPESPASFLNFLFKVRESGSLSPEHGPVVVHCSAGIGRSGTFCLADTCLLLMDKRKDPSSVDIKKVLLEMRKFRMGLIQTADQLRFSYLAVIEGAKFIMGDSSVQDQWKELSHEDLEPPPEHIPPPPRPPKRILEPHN
Procedure: The enzymatic assay used to determine activity is a mobility shift assay using a LabChip EZ Reader by Caliper Life Sciences. The enzymatic reaction was carried out in assay buffer (50 mM HEPES pH 7.5, 1 mM EGTA, 10 mM EDTA, 0.01% Tween® 20, and 2 mM DTT). […] The enzyme (at 0.5 nM) was incubated with compound for 10 minutes at room temperature. […] The % inhibition was then used to calculate the IC50 values.

Row | IC50 [2] [nM] | Structure (SMILES) | IC50 [1] [nM]
1 | < 1 | O=C1CN(c2c(O)cc3ccc(NCCCC(F)F)cc3c2F)S(=O)(=O)N1 [Compound 324, 5-{7-[(4,4-difluorobutyl)amino]-1-fluoro-3-hydroxynaphthalen-2-y}-1λ^6,2,5-thiadiazolidine-1,1,3-trione] | < 1
2 | 10 to 100 | O=C1CN(c2c(O)cc3ccc(OCCN4CCNC4=O)cc3c2F)S(=O)(=O)N1 [Compound 326, 5-{1-fluoro-3-hydroxy-7-[2-(2-oxoimidazolidin-1-yl)ethoxy]naphthalen-2-yl}-1λ^6,2,5-thiadiazolidine-1,1,3-trione] | < 1
3 | 1 to 10 | O=C1CN(c2c(O)cc3cc(O)ccc3c2F)S(=O)(=O)N1 [Compound 328, 5-(1-fluoro-3,6-dihydroxynaphthalen-2-yl)-1λ^6,2,5-thiadiazolidine-1,1,3-trione] | < 1
4 | 10 to 100 | Nc1ccc2c(F)c(N3CC(=O)NS3(=O)=O)c(O)cc2c1 [Compound 329, 5-(6-amino-1-fluoro-3-hydroxynaphthalen-2-yl)-1λ^6,2,5-thiadiazolidine-1,1,3-trione] | 1 to 10
5 | 10 to 100 | O=C1CN(c2c(O)cc3cc(NCCCC(F)F)ccc3c2F)S(=O)(=O)N1 [Compound 330, 5-{6-[(4,4-difluorobutyl)amino]-1-fluoro-3-hydroxynaphthalen-2-y}-1λ^6,2,5-thiadiazolidine-1,1,3-trione] | 10 to 100
6 | 10 to 100 | O=C1CN(c2c(O)cc3cc(NCC4CC4)ccc3c2F)S(=O)(=O)N1 [Compound 331, 5-{6-[(cyclopropylmethyl)amino]-1-fluoro-3-hydroxynaphthalen-2-yl}-1λ^6,2,5-thiadiazolidine-1,1,3-trione] | 10 to 100
7 | 10 to 100 | CC(C)CCNc1ccc2c(F)c(N3CC(=O)NS3(=O)=O)c(O)cc2c1 [Compound 332, 5-{1-fluoro-3-hydroxy-6-[(3-methylbutyl)amino]naphthalen-2-yl}-1λ^6,2,5-thiadiazolidine-1,1,3-trione] | 10 to 100
8 | 10 to 100 | CC(C)(O)CCNc1ccc2c(F)c(N3CC(=O)NS3(=O)=O)c(O)cc2c1 [Compound 333, 5-{1-fluoro-3-hydroxy-6-[(3-hydroxy-3-methylbutyl)amino]naphthalen-2-yl}-1λ^6,2,5-thiadiazolidine-1,1,3-trione] | 10 to 100
9 | 10 to 100 | COc1ccc2c(F)c(N3CC(=O)NS3(=O)=O)c(O)cc2c1 [Compound 335, 5-(1-fluoro-3-hydroxy-6-methoxynaphthalen-2-yl)-11λ^6,2,5-thiadiazolidine-1,1,3-trione] | 10 to 100
10 | 10 to 100 | CC(C)(C)OC(=O)NCCOc1ccc2c(F)c(N3CC(=O)NS3(=O)=O)c(O)cc2c1 [Compound 336, tert-butyl (2-{[5-fluoro-7-hydroxy-6-(1,1,4-trioxo-1λ^6,2,5-thiadiazolidin-2-yl)naphthalen-2-yl]oxy}ethyl)carbamate] | 10 to 100
11 | 10 to 100 | NCCOc1ccc2c(F)c(N3CC(=O)NS3(=O)=O)c(O)cc2c1 [Compound 337, 5-[6-(2-aminoethoxy)-1-fluoro-3-hydroxynaphthalen-2-yl]-1λ^6,2,5-thiadiazolidine-1,1,3-trione] | 10 to 100
12 | 10 to 100 | O=C1CN(c2c(O)cc3cc(OCC4CC4)ccc3c2F)S(=O)(=O)N1 [Compound 338, 5-[6-(cyclopropylmethoxy)-1-fluoro-3-hydroxynaphthalen-2-yl]-1λ^6,2,5-thiadiazolidine-1,1,3-trione] | 10 to 100
13 | < 1 | CC(C)(CO)CS(=O)(=O)N1CC=C(c2ccc3cc(O)c(N4CC(=O)NS4(=O)=O)c(F)c3c2)C1 [Compound 344, 5-{1-fluoro-3-hydroxy-7-[1-(3-hydroxy-2,2-dimethylpropane-1-sulfonyl)-2,5-dihydro-1H-pyrrol-3-yl]naphthalen-2-yl}-1λ^6,2,5-thiadiazolidine-1,1,3-trione] | < 1
14 | 1 to 10 | NCCCS(=O)(=O)N1CC=C(c2ccc3cc(O)c(N4CC(=O)NS4(=O)=O)c(F)c3c2)C1 [Compound 345, 5-{7-[1-(3-aminopropane-1-sulfonyl)-2,5-dihydro-1H-pyrrol-3-yl]-1-fluoro-3-hydroxynaphthalen-2-yl}-1λ^6,2,5-thiadiazolidine-1,1,3-trione] | < 1
15 | < 1 | C[C@@](O)(CC#N)CCOc1ccc2cc(O)c(N3CC(=O)NS3(=O)=O)c(F)c2c1 [Compound 346, (3R)-5-{[8-fluoro-6-hydroxy-7-(1,1,4-trioxo-1λ^6,2,5-thiadiazolidin-2-yl)naphthalen-2-yl]oxy}-3-hydroxy-3-methylpentanenitrile] | < 1
16 | 1 to 10 | C[C@](O)(CC#N)CCOc1ccc2cc(O)c(N3CC(=O)NS3(=O)=O)c(F)c2c1 [Compound 347, (3S)-5-{[8-fluoro-6-hydroxy-7-(1,1,4-trioxo-1λ^6,2,5-thiadiazolidin-2-yl)naphthalen-2-yl]oxy}-3-hydroxy-3-methylpentanenitrile] | < 1

Row | Structure (SMILES) | IC50 [2] [nM] | IC50 [1] [nM]
17 | CC(O)(CO)CCOc1ccc2cc(O)c(N3CC(=O)NS3(=O)=O)c(F)c2c1 (stereo not drawn) [Compound 323, 5-[7-(3,4-dihydroxy-3-methylbutoxy)-1-fluoro-3-hydroxynaphthalen-2-yl]-1λ^6,2,5-thiadiazolidine-1,1,3-trione] | < 1 | < 1
18 | CCC(O)COc1ccc2cc(O)c(N3CC(=O)NS3(=O)=O)c(F)c2c1 (stereo not drawn) [Compound 327, 5-[1-fluoro-3-hydroxy-7-(2-hydroxybutoxy)naphthalen-2-yl]-1λ^6,2,5-thiadiazolidine-1,1,3-trione] | < 1 | < 1
19 | CC(C)(O)CCOc1ccc2c(F)c(N3CC(=O)NS3(=O)=O)c(O)cc2c1 [Compound 334, 5-[1-fluoro-3-hydroxy-6-(3-hydroxy-3-methylbutoxy)naphthalen-2-yl]-1λ^6,2,5-thiadiazolidine-1,1,3-trione] | > 100 | 10 to 100
20 | CC(C)CCOc1ccc2c(F)c(N3CC(=O)NS3(=O)=O)c(O)cc2c1 [Compound 339, 5-[1-fluoro-3-hydroxy-6-(3-methylbutoxy)naphthalen-2-yl]-1λ^6,2,5-thiadiazolidine-1,1,3-trione] | 10 to 100 | 10 to 100
21 | O=C1CN(c2c(O)cc3cc(OCCCC(F)F)ccc3c2F)S(=O)(=O)N1 [Compound 340, 5-[6-(4,4-difluorobutoxy)-1-fluoro-3-hydroxynaphthalen-2-yl]-1λ^6,2,5-thiadiazolidine-1,1,3-trione] | 10 to 100 | 10 to 100
22 | C[C@@](O)(CO)CCOc1ccc2cc(O)c(N3CC(=O)NS3(=O)=O)c(F)c2c1 [Compound 341, 5-{7-[(3S)-3,4-dihydroxy-3-methylbutoxy]-1-fluoro-3-hydroxynaphthalen-2-yl}-1λ^6,2,5-thiadiazolidine-1,1,3-trione] | < 1 | < 1
23 | CC(C)(CO)CCOc1ccc2cc(O)c(N3CC(=O)NS3(=O)=O)c(F)c2c1 [Compound 342, 5-[1-fluoro-3-hydroxy-7-(4-hydroxy-3,3-dimethylbutoxy)naphthalen-2-yl]-1λ^6,2,5-thiadiazolidine-1,1,3-trione] | < 1 | < 1
24 | C[C@](O)(CO)CCOc1ccc2cc(O)c(N3CC(=O)NS3(=O)=O)c(F)c2c1 [Compound 343, 5-{7-[(3R)-3,4-dihydroxy-3-methylbutoxy]-1-fluoro-3-hydroxynaphthalen-2-yl}-1λ^6,2,5-thiadiazolidine-1,1,3-trione] | 1 to 10 | < 1
